Source: patent US7053160B1, “Metallocene monohalogenides” (Basell Polyolefine GmbH, priority 1998, dated 2006)

Assay: Solubility comparison in toluene at room temperature
Format: physicochemical
Conditions: about 50 mg of solid dissolved

| Compound | solubility |
| --- | --- |
| Cc1cc2ccccc2[c-]1[Si](C)(C)[c-]1c(C)cc2ccccc21.[Cl-].[Cl-].[Zr+4] (stereo not shown) [dimethylsilanediylbis(2-methylindenyl)zirconium dichloride] | about 2.1 mmol/l |
| Dimethylsilanediylbis(2-methylindenyl)zirconium monochloride mono(2,4-di-tert-butylphenoxide) [compound 2] | > 15 mM |
| CC1=Cc2c(ccc3ccccc23)[C]12[Si](C)(C)[C]1(C(C)=Cc3c1ccc1ccccc31)[Zr]2([Cl])[Cl] (stereo not shown) [dimethylsilanediylbis(2-methyl-4,5-benzoindenyl)zirconium dichloride] | about 0.36 mmol/l |
| CC1=Cc2c(ccc3ccccc23)[C]12[Si](C)(C)[C]1(C(C)=Cc3c1ccc1ccccc31)[Zr]2([Cl])[O]c1ccc(C(C)(C)C)cc1C(C)(C)C (stereo not shown) [compound 1, Dimethylsilanediylbis(2-methyl-4,5-benzoindenyl)zirconium monochloride mono(2,4-di-tert-butylphenoxide)] | > 13 mM |
